The record followed here is PubChem BioAssay AID1915 (Broad Institute, 2009).

Results filed as inconclusive are left out.

The assay concerns Group A Streptococcus UMAA2166 viability, BacTiterGlo luminescence, 6 h. Kind of assay: Group A Streptococcus viability loss, dose response, counter-screen for streptokinase expression inhibitor project, luminescence, BacTiterGlo (AID 1915). Background: Counterscreens check selectivity or assay interference.

As for `CN(C)c1ccnc2c[cH-]cc12.[Fe].c1ccc(-[c-]2[c-](-c3ccccc3)[c-](-c3ccccc3)[c-](-c3ccccc3)[c-]2-c2ccccc2)cc1` (configuration not stated), the IC50 (in general, the concentration that gives 50% inhibition) was 8.69 µM.

`CNC(CC(C)C)C(=O)NC1C(=O)NC(CC(N)=O)C(=O)NC2C(=O)NC3C(=O)NC(C(=O)NC(C(=O)O)c4cc(O)cc(O)c4-c4cc3ccc4O)C(O)c3ccc(c(Cl)c3)Oc3cc2cc(c3OC2OC(CO)C(O)C(O)C2OC2CC(C)(N)C(O)C(C)O2)Oc2ccc(cc2Cl)C1O` (configuration not stated): the half-maximal inhibitory concentration (IC50) is 0.341 µM.
